{"source": "patent US20080279775A1", "about": "“Benztropinamine Analogs as Dopamine Uptake Inhibitors” (priority 2005, published 2008)", "key": {"[1]": {"target": "T1, DAT (Rattus norvegicus, UniProt P23977)", "T1 construct": "their brains removed to an ice-cooled dish for dissection of the caudate putamen; from tissue; host or cells: rat caudate putamen membranes (fresh homogenates)", "T1 sequence (P23977 whole entry)": "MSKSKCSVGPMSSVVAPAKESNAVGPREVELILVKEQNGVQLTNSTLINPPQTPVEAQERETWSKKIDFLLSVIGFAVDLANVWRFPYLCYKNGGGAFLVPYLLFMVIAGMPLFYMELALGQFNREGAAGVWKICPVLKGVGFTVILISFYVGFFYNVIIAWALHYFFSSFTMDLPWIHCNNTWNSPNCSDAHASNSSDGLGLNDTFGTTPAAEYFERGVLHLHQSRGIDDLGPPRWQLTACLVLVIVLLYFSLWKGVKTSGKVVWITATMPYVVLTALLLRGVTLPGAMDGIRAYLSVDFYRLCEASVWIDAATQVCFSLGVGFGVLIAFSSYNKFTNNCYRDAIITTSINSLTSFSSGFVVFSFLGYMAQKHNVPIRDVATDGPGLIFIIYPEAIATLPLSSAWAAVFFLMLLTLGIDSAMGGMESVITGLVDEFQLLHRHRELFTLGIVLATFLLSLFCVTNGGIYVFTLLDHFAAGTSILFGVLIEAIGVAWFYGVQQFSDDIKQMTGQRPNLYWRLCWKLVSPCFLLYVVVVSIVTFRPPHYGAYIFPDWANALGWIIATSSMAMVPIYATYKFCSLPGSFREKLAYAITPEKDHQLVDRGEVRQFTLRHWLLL", "assay": "Dopamine transporter binding assay, displacement of [3H]WIN 35,428", "settings": "rat caudate-putamen membranes; read-out: DAT [3H]WIN 35,428 Ki ± SEM"}, "[2]": {"target": "T2, SERT (Rattus norvegicus, UniProt P31652)", "T2 construct": "Membranes from frozen rat midbrain were homogenized; from tissue; host or cells: frozen rat midbrain membranes", "T2 sequence (P31652 whole entry)": "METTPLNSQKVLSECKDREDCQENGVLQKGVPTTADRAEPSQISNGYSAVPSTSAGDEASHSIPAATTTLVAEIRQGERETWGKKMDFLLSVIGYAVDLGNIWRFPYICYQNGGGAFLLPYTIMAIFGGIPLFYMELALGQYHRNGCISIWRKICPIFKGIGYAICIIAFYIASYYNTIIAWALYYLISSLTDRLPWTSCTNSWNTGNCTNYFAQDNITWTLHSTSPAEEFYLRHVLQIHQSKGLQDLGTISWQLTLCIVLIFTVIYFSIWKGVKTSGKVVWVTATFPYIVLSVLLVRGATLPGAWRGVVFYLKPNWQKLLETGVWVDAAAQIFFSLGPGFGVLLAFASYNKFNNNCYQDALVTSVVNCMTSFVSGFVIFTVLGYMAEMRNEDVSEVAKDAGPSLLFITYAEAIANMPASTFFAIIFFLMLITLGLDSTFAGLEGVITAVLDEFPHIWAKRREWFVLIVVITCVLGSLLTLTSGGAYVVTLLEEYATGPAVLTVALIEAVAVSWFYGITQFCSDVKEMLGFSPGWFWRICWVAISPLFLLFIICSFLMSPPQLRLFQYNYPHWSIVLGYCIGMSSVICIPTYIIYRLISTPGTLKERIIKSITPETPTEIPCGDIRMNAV", "assay": "[3H]Citalopram binding assay", "method": "(§1) In order to understand the neurochemical and behavioral properties of the compounds of the present invention, exemplary benztropinamine analogs were evaluated for displacement of [^3H]WIN 35,428 (2β-carbomethoxy-3β-(4-fluorophenyl)tropane) binding to the DAT in rat caudate-putamen. These benztropinamine analogs were also evaluated for displacement of radiolabeled ligand binding at the serotonin (SERT) and norepinephrine (NET) transporters as well as the muscarinic m1 receptor (M1), Table 1, infra. The NET over DAT selectivity refers to the Ki ratio. When the Ki ratio is greater than 1, the compound is DAT selective. The DAT selectivities of the analogs over these binding sites are depicted in Table 2.\n[^3H]Citalopram Binding Assay. Membranes from frozen rat midbrain were homogenized in 20 volumes (w/v) of 50 mM Tris containing 120 mM NaCl and 5 mM KCl (pH 7.4 at 25° C.), using a Brinkman Polytron (at setting 6 for 20 sec). The tissue was centrifuged at 20,000×g for 10 min at 4° C. The resulting pellet was resuspended in buffer and recentrifuged. The final pellet was resuspended in cold buffer to a concentration of 15 mg/ml (original wet weight). Ligand binding experiments were conducted in assay tubes containing 0.5 ml of buffer, 1.4 nM [^3H]citalopram (New England Nuclear, Boston Mass.), and 1.5 mg midbrain tissue. The reaction was started with the addition of the tissue and the tubes were incubated for 60 min at 25° C. (room temperature). The incubation was terminated by rapid filtration through Whatman GF/B filters (presoaked in 0.3% polyethylenimine in water) using a Brandel Cell Harvester (Brandel Instruments Gaithersburg, Md.). The filters were washed twice with 5 ml cold buffer, transferred to scintillation vials to which Beckman Ready Safe was added. Nonspecific binding was determined using 10 μM fluoxetine (RBI, Natick, Mass.). Data were analyzed using GraphPad Prism software (San Diego, Calif.)."}, "[3]": {"system": "NET", "assay_type": "binding, rat", "settings": "Ki ratio", "method": "as §1\n[^3H]Nisoxetine Binding Assay. Membranes from frozen frontal cortex dissected from male Sprague-Dawley rats (Taconic Labs, Germantown, N.Y.) were homogenized in 20 volumes (w/v) of 50 mM Tris containing 120 mM NaCl and 5 mM KCl (pH 7.4 at 25° C.), using a Brinkman Polytron (at setting 6 for 20 sec). The tissue was centrifuged at 50,000×g for 10 min at 4° C. The resulting pellet was resuspended in buffer and recentrifuged. The final pellet was resuspended in cold buffer to a concentration of 80 mg/ml (original wet weight). Ligand binding experiments were conducted in assay tubes containing 0.5 ml buffer, 0.5 nM [3H]nisoxetine (New England Nuclear, Boston, Mass.), and 8 mg frontal cortex tissue. The reaction was started with the addition of the tissue and the tubes were incubated for 60 min at 0-4° C. The incubation was terminated by rapid filtration through Whatman GF/B filters, presoaked in 0.05% polyethylenimine, using a Brandel Cell Harvester (Brandel Instruments Gaithersburg, Md.). The filters were washed twice with 5 ml cold buffer, transferred to scintillation vials to which Beckman Ready Safe was added. Nonspecific binding was determined using 1 μM desipramine. Data were analyzed using GraphPad Prism software (San Diego, Calif.)."}, "[4]": {"target": "T3, muscarinic M1 receptor (Rattus norvegicus, UniProt P08482)", "T3 construct": "Membranes from frozen rat brains excluding cerebellum were thawed in ice-cold buffer; from tissue; host or cells: frozen rat brain (excluding cerebellum) membranes", "T3 sequence (P08482 1-460)": "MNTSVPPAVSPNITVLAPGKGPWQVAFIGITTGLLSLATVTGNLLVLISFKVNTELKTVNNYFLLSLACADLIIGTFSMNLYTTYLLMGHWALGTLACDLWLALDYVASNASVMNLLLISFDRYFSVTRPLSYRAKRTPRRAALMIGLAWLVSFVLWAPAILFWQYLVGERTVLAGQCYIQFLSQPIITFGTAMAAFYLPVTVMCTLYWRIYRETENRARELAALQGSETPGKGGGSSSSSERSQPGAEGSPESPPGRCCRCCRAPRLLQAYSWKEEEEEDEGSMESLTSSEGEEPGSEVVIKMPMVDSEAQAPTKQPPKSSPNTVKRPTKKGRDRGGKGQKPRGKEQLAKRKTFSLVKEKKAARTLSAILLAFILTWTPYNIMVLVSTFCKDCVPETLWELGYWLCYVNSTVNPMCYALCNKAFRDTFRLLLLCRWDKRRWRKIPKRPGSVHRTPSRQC", "assay": "[3H]Pirenzepine binding assay", "method": "as §1, with “When the Ki ratio is greater than 1, the compound is DAT selective.” left out\n[…] Binding Assay. Membranes from frozen rat brains excluding cerebellum were thawed in ice-cold buffer (10 mM Tris-HCl, 320 mM sucrose, pH 7.4) and homogenized with a Brinkman polytron in a volume of 10 ml/gm of tissue. The homogenate was centrifuged at 1,000×g for 10 min at 4° C. The resulting supernatant was then centrifuged at 10,000×g for 20 min at 4° C. The resulting pellet was resuspended in a volume of 200 mg/ml in 10 mM Tris buffer (pH 7.4). Ligand binding assays were conducted in tubes containing 0.5 ml of buffer (10 mM Tris-HCl, 5 mM MgCl2), 3 nM [^3H]pirenzepine (New England Nuclear, Boston, Mass.), and 20 mg of brain tissue. The reaction was started with the addition of the tissue and the tubes were incubated for 60 min in a 37° C. water bath. The incubation was terminated by the addition of 5 ml of ice-cold buffer (10 mM Tris-HCl, pH 7.4) and rapid filtration through Whatman GF/B glass fiber filter paper (presoaked in 0.5% polyethylenimine) using a Brandel Cell Harvester (Brandel Instruments, Gaithersburg, Md.). The filters were washed twice with 5 ml cold buffer, and transferred to scintillation vials to which absolute ethanol and Beckman Ready Safe was added. Quinuclidinyl benzilate (QNB), 100 μM final concentration, was used to determine non-specific binding. Data were analyzed by using GraphPad Prism software (San Diego, Calif.)."}, "[5]": {"system": "mice", "assay": "Locomotor stimulant effects (activity counts per minute)", "assay_type": "in vivo", "source_text": "In contrast, 2m produced much more modest increases in activity of around 100 counts per min."}, "[6]": {"system": "rats", "assay": "Cocaine drug discrimination (cocaine-like subjective effects)", "assay_type": "in vivo", "settings": "rats trained to discriminate cocaine from vehicle, over the dose range tested, FIGS. 3A and 3B", "source_text": "FIG. 3A depicts % drug responding as a function of dose; FIG. 3B depicts % control response rate as a function of dose.\nRats were trained to emit one response after an injection of cocaine and a different response after injection of vehicle. Once the subjects were well trained, they act as detectors of cocaine-like subjective effects."}}, "note": "Values joined by “and” are separate entries in the source; they are usually repeats but may differ in a detail not shown here. Equal entries are not always repeated. “Also recorded” adds a separate entry of the source.", "data": [{"smiles": "O=C(CCN1[C@@H]2CC[C@H]1C[C@@H](NC(c1ccc(F)cc1)c1ccc(F)cc1)C2)Nc1ccccc1", "note": "[Compound 2m]", "values": [{"measurement": "Ki", "setting": "[1]", "value": 4.61, "unit": "nM"}, {"measurement": "Binding selectivity SERT/DAT", "setting": "[2]; Ki ratio", "value": 132}, {"measurement": "Ki", "setting": "[2]; rat midbrain membranes, read-out: SERT [3H]citalopram Ki ± SEM", "value": "608 ± 41", "unit": "nM"}, {"measurement": "Binding selectivity NET/DAT", "setting": "[3]", "value": "535 and 536"}, {"measurement": "Binding selectivity M1/DAT", "setting": "[4]; Ki ratio", "value": 551}, {"measurement": "Ki", "setting": "[4]; rat brain membranes excluding cerebellum, read-out: M1 [3H]pirenzepine Ki ± SEM", "value": "2540 ± 124", "unit": "nM"}, {"measurement": "Cocaine-like locomotor stimulant effects", "setting": "[5]", "value": "lacks cocaine-like locomotor stimulant effects"}, {"measurement": "Locomotor activity", "setting": "[5]; injected, at the most effective dose, FIG. 2", "value": "around 100 counts per min"}, {"measurement": "Cocaine-like subjective effects (substitution for cocaine)", "setting": "[6]", "value": "lacks cocaine-like subjective effects; also recorded: did not substitute for cocaine"}]}]}
